Active and inactive are the calls of the source. The rule behind the calls is not given here.
Tested on: CCRIS mutagenicity, Ames/micronucleus/aberration tests
Test: CCRIS mutagenicity studies
[1] = Test System: AMES SALMONELLA TYPHIMURIUM, Strain/Indicator: TA1535, Metabolic Activation: NONE, Method: STANDARD PLATE
[2] = Test System: AMES SALMONELLA TYPHIMURIUM, Strain/Indicator: TA1535, Metabolic Activation: RAT, LIVER, S-9, AROCLOR 1254, Method: STANDARD PLATE
[3] = Test System: AMES SALMONELLA TYPHIMURIUM, Strain/Indicator: TA1537, Metabolic Activation: NONE, Method: STANDARD PLATE
[4] = Test System: AMES SALMONELLA TYPHIMURIUM, Strain/Indicator: TA1537, Metabolic Activation: RAT, LIVER, S-9, AROCLOR 1254, Method: STANDARD PLATE
[5] = Test System: AMES SALMONELLA TYPHIMURIUM, Strain/Indicator: TA1538, Metabolic Activation: NONE, Method: STANDARD PLATE
[6] = Test System: AMES SALMONELLA TYPHIMURIUM, Strain/Indicator: TA98, Metabolic Activation: RAT, LIVER, S-9, AROCLOR 1254, Method: PREINCUBATION
[7] = Test System: AMES SALMONELLA TYPHIMURIUM, Strain/Indicator: TA100, Metabolic Activation: RAT, LIVER, S-9, AROCLOR 1254, Method: PREINCUBATION
[8] = Test System: AMES SALMONELLA TYPHIMURIUM, Strain/Indicator: TA98, Metabolic Activation: NONE, Method: PREINCUBATION
[9] = Test System: AMES SALMONELLA TYPHIMURIUM, Strain/Indicator: TA100, Metabolic Activation: NONE, Method: PREINCUBATION

For CCCCOC(=O)CC(CC(=O)OCCCC)(OC(C)=O)C(=O)OCCCC, the mutagenic call (Test System: AMES SALMONELLA TYPHIMURIUM, Strain/Indicator: TA98, Metabolic Activation: HAMSTER, LIVER, S-9, AROCLOR 1254, Method: STANDARD PLATE) was “inactive; negative”, the mutagenic call (Test System: AMES SALMONELLA TYPHIMURIUM, Strain/Indicator: TA98, Metabolic Activation: NONE, Method: STANDARD PLATE) was “inactive; negative” and the mutagenic call (Test System: AMES SALMONELLA TYPHIMURIUM, Strain/Indicator: TA98, Metabolic Activation: RAT, LIVER, S-9, AROCLOR 1254, Method: STANDARD PLATE) was “inactive; negative”. For the same compound, the mutagenic call (Test System: AMES SALMONELLA TYPHIMURIUM, Strain/Indicator: TA100, Metabolic Activation: HAMSTER, LIVER, S-9, AROCLOR 1254, Method: STANDARD PLATE) was “inactive; negative”, the mutagenic call (Test System: AMES SALMONELLA TYPHIMURIUM, Strain/Indicator: TA100, Metabolic Activation: NONE, Method: STANDARD PLATE) was “inactive; negative” and the mutagenic call (Test System: AMES SALMONELLA TYPHIMURIUM, Strain/Indicator: TA100, Metabolic Activation: RAT, LIVER, S-9, AROCLOR 1254, Method: STANDARD PLATE) was “inactive; negative”. The mutagenic call (Test System: AMES SALMONELLA TYPHIMURIUM, Strain/Indicator: TA1535, Metabolic Activation: HAMSTER, LIVER, S-9, AROCLOR 1254, Method: STANDARD PLATE) was “inactive; negative”, the mutagenic call [1] was “inactive; negative” and the mutagenic call [2] was “inactive; negative”. For the same compound, the mutagenic call (Test System: AMES SALMONELLA TYPHIMURIUM, Strain/Indicator: TA1537, Metabolic Activation: HAMSTER, LIVER, S-9, AROCLOR 1254, Method: STANDARD PLATE) was “inactive; negative”, the mutagenic call [3] was “inactive; negative” and the mutagenic call [4] was “inactive; negative”. For the same compound, the mutagenic call (Test System: AMES SALMONELLA TYPHIMURIUM, Strain/Indicator: TA1538, Metabolic Activation: HAMSTER, LIVER, S-9, AROCLOR 1254, Method: STANDARD PLATE) was “inactive; negative”, the mutagenic call [5] was “inactive; negative” and the mutagenic call (Test System: AMES SALMONELLA TYPHIMURIUM, Strain/Indicator: TA1538, Metabolic Activation: RAT, LIVER, S-9, AROCLOR 1254, Method: STANDARD PLATE) was “inactive; negative”. For the same compound, the mutagenic call (Test System: MOUSE LYMPHOMA, Strain/Indicator: L5178Y (TK+/TK-), Metabolic Activation: NONE, Method: SUSPENSION/PLATE) was “inactive; negative. reevaluation of results: inconclusive” and the mutagenic call (Test System: MOUSE LYMPHOMA, Strain/Indicator: L5178Y (TK+/TK-), Metabolic Activation: RAT, LIVER, S-9, AROCLOR 1254, Method: SUSPENSION/PLATE) was “inactive; negative. reevaluation of results: negative”.
For CC(=O)NC[C@H](O)COc1cccc2ccccc12, the mutagenic call [6] was “inactive; negative”, the mutagenic call [7] was “inactive; negative” and the mutagenic call (Test System: AMES SALMONELLA TYPHIMURIUM, Strain/Indicator: TA104, Metabolic Activation: RAT, LIVER, S-9, AROCLOR 1254, Method: PREINCUBATION) was “active; positive”. For the same compound, the mutagenic call (Test System: AMES SALMONELLA TYPHIMURIUM, Strain/Indicator: TA1535, Metabolic Activation: RAT, LIVER, S-9, AROCLOR 1254, Method: PREINCUBATION) was “inactive; negative”, the mutagenic call (Test System: AMES SALMONELLA TYPHIMURIUM, Strain/Indicator: TA1538, Metabolic Activation: RAT, LIVER, S-9, AROCLOR 1254, Method: PREINCUBATION) was “inactive; negative” and the mutagenic call (Test System: AMES SALMONELLA TYPHIMURIUM, Strain/Indicator: YG1021, Metabolic Activation: RAT, LIVER, S-9, AROCLOR 1254, Method: PREINCUBATION) was “inactive; negative”. For the same compound, the mutagenic call (Test System: AMES SALMONELLA TYPHIMURIUM, Strain/Indicator: YG1024, Metabolic Activation: RAT, LIVER, S-9, AROCLOR 1254, Method: PREINCUBATION) was “inactive; negative”, the mutagenic call (Test System: AMES SALMONELLA TYPHIMURIUM, Strain/Indicator: YG1026, Metabolic Activation: RAT, LIVER, S-9, AROCLOR 1254, Method: PREINCUBATION) was “inactive; negative” and the mutagenic call (Test System: AMES SALMONELLA TYPHIMURIUM, Strain/Indicator: YG1029, Metabolic Activation: RAT, LIVER, S-9, AROCLOR 1254, Method: PREINCUBATION) was “active; positive”. The mutagenic call (Test System: AMES SALMONELLA TYPHIMURIUM, Strain/Indicator: YG1041, Metabolic Activation: RAT, LIVER, S-9, AROCLOR 1254, Method: PREINCUBATION) was “inactive; negative”, the mutagenic call (Test System: AMES SALMONELLA TYPHIMURIUM, Strain/Indicator: YG1042, Metabolic Activation: RAT, LIVER, S-9, AROCLOR 1254, Method: PREINCUBATION) was “inactive; negative” and the mutagenic call (Test System: AMES SALMONELLA TYPHIMURIUM, Strain/Indicator: YG3003, Metabolic Activation: RAT, LIVER, S-9, AROCLOR 1254, Method: PREINCUBATION) was “active; positive”.
For Cc1cc(/C=C/c2ccc3cc(N(C)C)ccc3[n+]2C)c(C)n1-c1ccccc1, the mutagenic call (Test System: AMES SALMONELLA TYPHIMURIUM, Strain/Indicator: TA98, Metabolic Activation: HUMAN, LIVER, S-9, Method: STANDARD PLATE) was “active; positive”, the mutagenic call [8] was “active; positive” and the mutagenic call [6] was “active; positive”. The mutagenic call (Test System: AMES SALMONELLA TYPHIMURIUM, Strain/Indicator: TA100, Metabolic Activation: HUMAN, LIVER, S-9, Method: STANDARD PLATE) was “active; positive”, the mutagenic call [9] was “active; positive” and the mutagenic call [7] was “active; positive”. The mutagenic call [1] was “inactive; negative”, the mutagenic call [2] was “inactive; negative” and the mutagenic call [3] was “inactive; negative”. The mutagenic call [4] was “inactive; negative”, the mutagenic call [5] was “inactive; negative” and the mutagenic call (Test System: AMES SALMONELLA TYPHIMURIUM, Strain/Indicator: UTH8413, Metabolic Activation: NONE, Method: PREINCUBATION) was “inactive; negative”. The mutagenic call (Test System: AMES SALMONELLA TYPHIMURIUM, Strain/Indicator: UTH8414, Metabolic Activation: NONE, Method: PREINCUBATION) was “active; positive” and the mutagenic call (Test System: AMES SALMONELLA TYPHIMURIUM, Strain/Indicator: UTH8414, Metabolic Activation: RAT, LIVER, S-9, AROCLOR 1254, Method: PREINCUBATION) was “active; positive”.
In the case of Cc1ccccc1S(N)(=O)=O, the mutagenic call [8] is reported as “inactive; negative”, the mutagenic call (Test System: AMES SALMONELLA TYPHIMURIUM, Strain/Indicator: TA98, Metabolic Activation: RAT LIVER S-9, PHENOBARBITAL AND BETA-NAPHTHOFLAVONE, Method: PREINCUBATION) is reported as “inactive; negative” and the mutagenic call [9] is reported as “inactive; negative”. The mutagenic call (Test System: AMES SALMONELLA TYPHIMURIUM, Strain/Indicator: TA100, Metabolic Activation: RAT LIVER S-9, PHENOBARBITAL AND BETA-NAPHTHOFLAVONE, Method: PREINCUBATION) was “inactive; negative”, the mutagenic call (Test System: AMES SALMONELLA TYPHIMURIUM, Strain/Indicator: TA1535, Metabolic Activation: NONE, Method: PREINCUBATION) was “inactive; negative” and the mutagenic call (Test System: AMES SALMONELLA TYPHIMURIUM, Strain/Indicator: TA1535, Metabolic Activation: RAT LIVER S-9, PHENOBARBITAL AND BETA-NAPHTHOFLAVONE, Method: PREINCUBATION) was “inactive; negative”. For the same compound, the mutagenic call (Test System: AMES SALMONELLA TYPHIMURIUM, Strain/Indicator: TA1537, Metabolic Activation: NONE, Method: PREINCUBATION) was “inactive; negative”, the mutagenic call (Test System: AMES SALMONELLA TYPHIMURIUM, Strain/Indicator: TA1537, Metabolic Activation: RAT LIVER S-9, PHENOBARBITAL AND BETA-NAPHTHOFLAVONE, Method: PREINCUBATION) was “inactive; negative” and the mutagenic call (Test System: AMES SALMONELLA TYPHIMURIUM, Strain/Indicator: TA1538, Metabolic Activation: NONE, Method: PREINCUBATION) was “inactive; negative”. The mutagenic call (Test System: AMES SALMONELLA TYPHIMURIUM, Strain/Indicator: TA1538, Metabolic Activation: RAT LIVER S-9, PHENOBARBITAL AND BETA-NAPHTHOFLAVONE, Method: PREINCUBATION) was “inactive; negative”, the mutagenic call (Test System: E.COLI, Strain/Indicator: WP2UVRA/PKM101, Metabolic Activation: NONE, Method: PREINCUBATION) was “inactive; negative” and the mutagenic call (Test System: E.COLI, Strain/Indicator: WP2UVRA/PKM101, Metabolic Activation: RAT LIVER S-9, PHENOBARBITAL AND BETA-NAPHTHOFLAVONE, Method: PREINCUBATION) was “inactive; negative”. For the same compound, the mutagenic call (Test System: E.COLI, Strain/Indicator: WP2UVRA, Metabolic Activation: NONE, Method: PREINCUBATION) was “inactive; negative” and the mutagenic call (Test System: E.COLI, Strain/Indicator: WP2UVRA, Metabolic Activation: RAT LIVER S-9, PHENOBARBITAL AND BETA-NAPHTHOFLAVONE, Method: PREINCUBATION) was “inactive; negative”.
